Measured values published in patent US8883827B2, “Azole derivatives as WTN pathway inhibitors” (Oslo University Hospital HF, priority 2009, dated 2014).
Where “and” joins values, the source holds several entries; their conditions need not be identical. Equal entries are not always repeated.

Key:
[1] = molecular target: T1, JAK2(h) (Homo sapiens, UniProt O60674); assay: Kinase screen; type: biochemical; conditions: 0.1% DMSO control = 100%
T1 construct: purchased Millipore (KinaseProfiler service)

[2] = tested on: SW480 cells; assay: BrdU/PI cell cycle analysis; type: cell-based; conditions: 25 μM, 72 h
Experimental: Cell cycle progression was measured by BrdU labeling of cultured cells that were counterstained with propidium iodide (PI).
SW480 cells were seeded and exposed to compounds for 3 days changing medium every day as described in Example 24. After a 30 minute incubation with 10 μM BrdU, the cells were trypsinized and stained with 1:100 diluted mouse anti-BrdU antibody (Roche) and Alexa Fluor®488 goat anti-mouse antibody (A 11001, Invitrogen). Counterstaining was done with 10 μg/mL PI in 200 μg/mL RNase I (both Sigma). Samples were analyzed on the PAS-PPCS flow cytometer and cell sorter (Partec).

[3] = tested on: Apc^Min mice; assay: Tumour growth in Apc^Min mice; type: in vivo
Experimental: Cages containing three C57BL/6 females were crossed with one C57BL/6J-Apc^Min male. The mice were fed with 2018SX Teklad Global 18% Protein Extruded Rodent Diet (Harlan™). 5-7 day old pups were randomized and divided into two treatment groups; the test group was treated with compound (1) and the control group treated with control vehicle (1% Tween®80—Sigma). Test solutions were administered daily by subcutaneous injection into the back of the neck (10 μl solution per gram of animal weight, solution 15 mg/ml compound). Two day injection intermissions followed after every fifth injection day. At the age of 21 days, mice were genotyped and Apc^Min animals were sorted into a males and females. At the same time, subcutaneous injection of the solutions was substituted by oral administration. For oral application, compound (1) was dissolved in DMSO to […]. DMSO alone was used as a vehicle control (5 μl solution per gram of animal weight, solution 30 mg/ml). Administration was terminated at the age of 9 weeks and animals euthanased. The small intestine and colon of each animal was dissected, fixed in 10% PFA and stained with 1% methylene blue. Intestines were divided into anonymous and coded samples before manual analysis by microscopy. The frequency, distribution and size of the tumors were quantified. The mice were weighted twice a week throughout the experiment. All animal experiments were approved by local ethics authorities at Forsøksdyrutvalget, Oslo, Norway, and were carried out following accepted ethical standards. […] For each statistical comparison, a Shapiro-Wilk normality test was performed along with a Students t-test if passed (P>0.05). When normality could not be achieved in the Shapiro-Wilk test, a Mann-Whitney rank sum test was used instead of Students t-test. The α-level was set to 0.05 and a difference with P<0.05 was considered to be statistically significant. Sample size (n), median, range, maximum, minimum, mean, standard deviation, standard error, and confidence intervals (C.I. of mean) are listed.

[4] = molecular target: T2, PRAK(h) (Homo sapiens, UniProt Q8IW41); assay: Kinase screen; type: biochemical; conditions: 0.1% DMSO control = 100%
T2 construct: purchased Millipore (KinaseProfiler service)

[5] = molecular target: T3, ROCK-I(h) (Homo sapiens, UniProt Q13464); assay: Kinase screen; type: biochemical; conditions: 0.1% DMSO control = 100%
T3 construct: purchased Millipore (KinaseProfiler service)

[6] = molecular target: T4, CK2α2(h) (Homo sapiens, UniProt P19784); assay: Kinase screen; type: biochemical; conditions: 0.1% DMSO control = 100%
T4 construct: purchased Millipore (KinaseProfiler service)

[7] = molecular target: T5, PKG1α(h) (Homo sapiens, UniProt Q13976); assay: Kinase screen; type: biochemical; conditions: 0.1% DMSO control = 100%
T5 construct: purchased Millipore (KinaseProfiler service)

[8] = tested on: canonical Wnt signaling activated by β-catenin constructs; assay: ST-Luc reporter in HEK293 cells co-transfected with β-catenin variants; conditions: 10 or 25 μM, 24 h
Experimental: These included full-length β-catenin, β-catenin with point mutations at N-terminal phosphorylation sites (dominant active, da-Cat), N-terminal deletion of β-catenin (ΔN-Cat) as another dominant active form, and β-catenin C-terminal transactivation domain fused to LEF-1 (CLEF) functioning as dominant active LEF-1. Plasmid amounts used for transfections were diminished to nanograms per 48-well plate to obtain a pathway induction in the range of 10-20 fold.
Transfection was performed as described in Example 22, but using β-catenin variants co-transfected in the following plasmid combinations:
1) 0.215 μg SuperTOPFlash+0.02 μg Renilla+0.015 μg β-catenin;
2) 0.23 μg SuperTOPFlash+0.02 μg Renilla+0.2 ng da-Cat (dominant active β-catenin (S33, 37, 41 and 45A mutated);
3) 0.23 μg SuperTOPFlash+0.02 μg Renilla+0.2 ng ΔN-Cat (N-terminal deleted β-catenin; and
4) 0.23 μg SuperTOPFlash+0.02 μg Renilla+0.2 ng CLEF (β-catenin transactivation domain fused to LEF-1).

[9] = molecular target: T6, SAPK2a(h) (Homo sapiens, UniProt Q16539); assay: Kinase screen; type: biochemical; conditions: 0.1% DMSO control = 100%
T6 construct: purchased Millipore (KinaseProfiler Service)

[10] = tested on: SW480 colorectal cells; assay: SW480 xenograft in CB17/SCID mice; type: in vivo
Experimental: SW480 colorectal cells were injected subcutaneously into CB17/SCID mice and palpable tumors were detected within 7 days in 50% of the mice. Randomized groups of mice were injected (i.p.) daily with compound No. 1 at doses of […] or 30 mg/kg (delivered daily for five days followed by a 2-day pause) at termination, plasma was collected and tumors were isolated and weighed. 40 female […] (Taconic) were injected subcutaneously (s.c.) at the right posterior flank with 10^7 SW480 cells diluted in 100 μl PBS. Injections were initiated when tumor formation was visible in 50% of the animals (7 days). Mice were randomized and divided into three treatment groups: 150 mg/kg compound No. 1, 300 mg/kg compound No. 1 and vehicle control 1% Tween® 80 (Sigma). Daily injections (200 μl, i.p.) followed (two day injection intermissions after every fifth injection day) until experiment end (29 days). At the termination day, 24 hours after the last injection, blood was collected after cardiac puncture and the tumors were removed and weighed. The compound concentration in plasma and tumors was determined using an on-line and off-line Solid Phase Extraction-Capillary Liquid Chromatography ([…]) instrumentation coupled to a Time of Flight (TOF) mass spectrometer, as previously described (Wilson, S. R. et al., J. Sep. Sci. 28: 1751-1758, 2005). A Zorbax SB C18 5 μm 150×0.3 mm column (Agilent, […], Calif., USA) was used for separation, and a Knauer K-2600 UV detector was used as a complimentary detector. RNA was isolated from representative groups of tumors (n=5) and analysed by real-time RT-PCR as described in Example 25 for expression of Sp5. Results were calculated as the ratio of expression of Sp5 to a control gene (hGUSB). As described in standard protocols, immunostaining was performed with rabbit polyclonal smooth muscle actin (Abcam) and monoclonal β-catenin (BD Transduction LaboratoriesTM), both diluted 1:1000. Secondary antibodies used were 1:500 diluted Alexa Fluor® 594 goat anti-rabbit antibody and Alexa Fluor® 488 goat anti-mouse antibody. The sections were imaged by a Zeiss Axiovert 200M Fluorescence/Live cell Imaging Microscope with X^40 magnification and the same exposure times.

[11] = Test female, s.c. then oral 150 mg/kg, to age 9 weeks
[12] = Test male, s.c. then oral 150 mg/kg, to age 9 weeks

T3 sequence (Q13464 whole entry): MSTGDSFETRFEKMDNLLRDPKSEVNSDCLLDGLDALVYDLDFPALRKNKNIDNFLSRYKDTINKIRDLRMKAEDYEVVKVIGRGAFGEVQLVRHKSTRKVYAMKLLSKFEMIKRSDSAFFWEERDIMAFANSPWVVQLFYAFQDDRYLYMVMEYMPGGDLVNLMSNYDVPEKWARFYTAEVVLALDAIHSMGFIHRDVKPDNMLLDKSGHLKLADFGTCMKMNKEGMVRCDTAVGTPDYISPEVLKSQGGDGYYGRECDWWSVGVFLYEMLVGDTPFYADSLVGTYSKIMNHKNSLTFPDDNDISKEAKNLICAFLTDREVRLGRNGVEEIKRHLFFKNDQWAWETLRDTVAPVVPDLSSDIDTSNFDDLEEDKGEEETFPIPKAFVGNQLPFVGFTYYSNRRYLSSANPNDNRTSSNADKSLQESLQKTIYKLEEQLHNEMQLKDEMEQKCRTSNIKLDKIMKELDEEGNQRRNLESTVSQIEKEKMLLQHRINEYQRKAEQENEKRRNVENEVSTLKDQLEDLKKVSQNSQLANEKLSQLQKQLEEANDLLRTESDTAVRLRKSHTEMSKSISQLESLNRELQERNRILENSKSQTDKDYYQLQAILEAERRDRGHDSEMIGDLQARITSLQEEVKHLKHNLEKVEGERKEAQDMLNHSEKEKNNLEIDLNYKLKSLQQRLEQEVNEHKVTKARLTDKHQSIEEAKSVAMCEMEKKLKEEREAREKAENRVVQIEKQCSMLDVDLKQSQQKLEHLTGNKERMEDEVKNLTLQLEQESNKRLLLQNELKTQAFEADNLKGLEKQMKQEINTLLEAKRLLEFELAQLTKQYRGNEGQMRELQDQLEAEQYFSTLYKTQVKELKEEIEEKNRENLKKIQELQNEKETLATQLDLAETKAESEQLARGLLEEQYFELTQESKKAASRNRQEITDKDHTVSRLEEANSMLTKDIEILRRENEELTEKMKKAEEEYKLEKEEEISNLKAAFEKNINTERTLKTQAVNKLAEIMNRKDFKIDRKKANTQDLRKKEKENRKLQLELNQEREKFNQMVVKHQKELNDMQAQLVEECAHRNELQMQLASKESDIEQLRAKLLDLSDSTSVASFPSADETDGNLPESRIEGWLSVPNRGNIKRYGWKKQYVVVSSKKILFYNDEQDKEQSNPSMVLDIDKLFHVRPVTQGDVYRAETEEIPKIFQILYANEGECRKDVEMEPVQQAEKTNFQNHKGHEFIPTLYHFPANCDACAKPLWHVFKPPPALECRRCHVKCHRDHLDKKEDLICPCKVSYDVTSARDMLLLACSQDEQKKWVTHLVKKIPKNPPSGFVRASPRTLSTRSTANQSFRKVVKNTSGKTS
T4 sequence (P19784 whole entry): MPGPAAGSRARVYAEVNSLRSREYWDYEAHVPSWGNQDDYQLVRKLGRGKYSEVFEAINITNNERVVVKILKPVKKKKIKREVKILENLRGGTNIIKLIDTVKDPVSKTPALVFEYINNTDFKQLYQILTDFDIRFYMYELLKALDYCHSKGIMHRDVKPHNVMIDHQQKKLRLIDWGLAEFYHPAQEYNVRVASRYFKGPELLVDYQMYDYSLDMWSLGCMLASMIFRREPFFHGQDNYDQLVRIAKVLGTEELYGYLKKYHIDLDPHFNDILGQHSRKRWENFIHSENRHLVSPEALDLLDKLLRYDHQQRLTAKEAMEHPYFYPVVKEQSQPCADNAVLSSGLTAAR
T1 sequence (O60674 whole entry): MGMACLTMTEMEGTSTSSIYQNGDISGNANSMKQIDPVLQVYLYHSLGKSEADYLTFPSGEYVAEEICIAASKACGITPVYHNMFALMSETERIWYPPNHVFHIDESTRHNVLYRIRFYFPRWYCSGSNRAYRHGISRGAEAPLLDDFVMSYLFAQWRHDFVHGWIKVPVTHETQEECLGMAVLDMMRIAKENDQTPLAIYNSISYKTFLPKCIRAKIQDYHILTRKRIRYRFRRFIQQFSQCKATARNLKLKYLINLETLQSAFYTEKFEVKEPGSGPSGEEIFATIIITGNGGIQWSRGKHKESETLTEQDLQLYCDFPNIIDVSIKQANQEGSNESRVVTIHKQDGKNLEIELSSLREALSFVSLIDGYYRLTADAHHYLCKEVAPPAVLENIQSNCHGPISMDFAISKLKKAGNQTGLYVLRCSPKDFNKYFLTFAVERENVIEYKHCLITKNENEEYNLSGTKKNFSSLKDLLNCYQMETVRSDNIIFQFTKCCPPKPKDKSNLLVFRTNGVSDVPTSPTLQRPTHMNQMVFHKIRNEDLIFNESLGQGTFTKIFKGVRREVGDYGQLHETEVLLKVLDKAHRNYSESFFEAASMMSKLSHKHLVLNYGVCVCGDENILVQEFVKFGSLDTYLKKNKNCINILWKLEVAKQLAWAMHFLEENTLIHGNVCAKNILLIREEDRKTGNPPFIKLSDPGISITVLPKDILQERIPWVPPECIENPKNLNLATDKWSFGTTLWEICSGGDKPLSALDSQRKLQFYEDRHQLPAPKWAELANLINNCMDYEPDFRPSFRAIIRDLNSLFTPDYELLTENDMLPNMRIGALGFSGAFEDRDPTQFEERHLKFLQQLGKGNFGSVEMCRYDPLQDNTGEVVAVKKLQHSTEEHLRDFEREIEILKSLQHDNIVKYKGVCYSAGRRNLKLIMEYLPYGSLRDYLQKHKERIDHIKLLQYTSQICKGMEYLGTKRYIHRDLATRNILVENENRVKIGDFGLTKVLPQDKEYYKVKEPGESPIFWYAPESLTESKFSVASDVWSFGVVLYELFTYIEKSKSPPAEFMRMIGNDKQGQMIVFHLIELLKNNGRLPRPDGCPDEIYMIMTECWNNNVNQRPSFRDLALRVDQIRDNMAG
T2 sequence (Q8IW41 whole entry): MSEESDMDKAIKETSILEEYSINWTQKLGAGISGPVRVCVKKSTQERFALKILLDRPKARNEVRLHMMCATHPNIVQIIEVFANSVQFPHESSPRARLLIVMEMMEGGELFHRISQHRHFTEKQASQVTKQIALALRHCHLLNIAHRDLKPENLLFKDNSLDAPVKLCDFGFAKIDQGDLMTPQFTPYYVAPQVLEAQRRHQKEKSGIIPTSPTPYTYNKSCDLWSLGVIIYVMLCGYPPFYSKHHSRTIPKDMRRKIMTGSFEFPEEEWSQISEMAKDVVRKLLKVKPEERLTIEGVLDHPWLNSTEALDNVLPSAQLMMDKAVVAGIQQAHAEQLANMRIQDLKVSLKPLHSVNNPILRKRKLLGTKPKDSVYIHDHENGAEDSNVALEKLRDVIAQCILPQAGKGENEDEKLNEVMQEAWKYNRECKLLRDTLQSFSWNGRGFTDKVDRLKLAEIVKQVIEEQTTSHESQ
T6 sequence (Q16539 whole entry): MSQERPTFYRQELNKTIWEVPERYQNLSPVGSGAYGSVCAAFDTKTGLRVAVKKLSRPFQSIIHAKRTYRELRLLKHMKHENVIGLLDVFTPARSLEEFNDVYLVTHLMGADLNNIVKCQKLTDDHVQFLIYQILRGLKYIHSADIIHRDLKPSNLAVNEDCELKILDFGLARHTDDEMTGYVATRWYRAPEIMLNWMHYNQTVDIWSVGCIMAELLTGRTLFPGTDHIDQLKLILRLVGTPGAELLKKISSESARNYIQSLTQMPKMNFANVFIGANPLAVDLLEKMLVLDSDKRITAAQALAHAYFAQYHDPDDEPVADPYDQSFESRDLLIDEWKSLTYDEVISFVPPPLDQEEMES
T5 sequence (Q13976 whole entry): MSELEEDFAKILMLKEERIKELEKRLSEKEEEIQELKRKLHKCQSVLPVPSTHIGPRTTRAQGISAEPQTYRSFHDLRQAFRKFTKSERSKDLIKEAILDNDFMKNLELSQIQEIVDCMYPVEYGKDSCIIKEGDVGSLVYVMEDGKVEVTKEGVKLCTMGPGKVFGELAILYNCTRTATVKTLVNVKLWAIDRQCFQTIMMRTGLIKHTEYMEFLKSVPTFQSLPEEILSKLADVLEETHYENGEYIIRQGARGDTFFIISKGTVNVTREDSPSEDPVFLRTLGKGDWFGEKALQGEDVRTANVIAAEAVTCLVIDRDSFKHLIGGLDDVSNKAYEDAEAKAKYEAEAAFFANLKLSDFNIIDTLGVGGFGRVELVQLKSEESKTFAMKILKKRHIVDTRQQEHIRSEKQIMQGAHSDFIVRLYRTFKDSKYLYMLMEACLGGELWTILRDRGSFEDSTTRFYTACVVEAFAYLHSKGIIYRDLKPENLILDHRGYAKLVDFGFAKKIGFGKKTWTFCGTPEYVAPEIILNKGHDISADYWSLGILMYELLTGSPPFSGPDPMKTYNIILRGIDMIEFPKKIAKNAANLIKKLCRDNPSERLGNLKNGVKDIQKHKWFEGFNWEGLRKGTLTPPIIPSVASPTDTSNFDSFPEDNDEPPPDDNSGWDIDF

COc1ccc(-n2c(SCc3nc(-c4ccc(C)cc4)no3)nnc2-c2ccncc2)cc1 [Compound 1]
activity at 10 µM [1]: 118%
percentage of cells in S phase ([2]; DMSO control 28.4%): 16.2%
percentage of G1-phase cells ([2]; DMSO control 37.3%): 46.4%
number of colon tumours, Max ([3]; Test (male + female), control max 6): 2
number of small intestine tumours, Max ([3]; Test (male + female), control max 295): 53
number of colon tumours, Mean ([3]; Test (male + female), control mean 1.783, P=0.003): 0.42 and 0.429
number of small intestine tumours, Mean ([3]; Test (male + female), control mean 74.8, P=0.036): 36.1
number of colon tumours, Median ([3]; Test (male + female), control median 1): 0
number of small intestine tumours, Median ([3]; Test (male + female), control median 45): 35
number of colon tumours, Min ([3]; Test (male + female), control min 0): 0
number of small intestine tumours, Min ([3]; Test (male + female), control min 25): 19
number of small intestine tumours, Max [3, 11]: 51
number of small intestine tumours, Mean [3, 11]: 33.5
number of small intestine tumours, Median [3, 11]: 33
number of small intestine tumours, Min [3, 11]: 19
number of small intestine tumours, Max [3, 12]: 53
number of small intestine tumours, Mean [3, 12]: 39.1
number of small intestine tumours, Median [3, 12]: 37
number of small intestine tumours, Min [3, 12]: 22
difference in the bodyweight of male or female mice ([3]; after the treatments, versus vehicle group): No substantial difference
tumour frequencies among size classes between 0.10 mm^2 and 3.20 mm^2, small intestine ([3]; compared to control): drastically reduced
tumours in the last two-thirds of the small intestine ([3]; compared to control): substantially fewer tumours
total tumor load in the small intestine (sum of all tumors in mm^2/n) ([3]; control 38.1 mm^2/subject): 16.4 mm^2/subject
activity at 10 µM [4]: 55%
activity at 10 µM [5]: 100%
activity at 10 µM [6]: 104%
activity at 10 µM [7]: 106%
activation of canonical Wnt signaling by full-length β-catenin [8]: reduced
activation of the pathway by CLEF [8]: not significantly antagonized
activation of the pathway by da-Cat [8]: not significantly antagonized
activation of the pathway by ΔN-Cat [8]: not significantly antagonized
activity at 10 µM [9]: 106%
reduction in tumor size, on average ([10]; 150 mg/kg i.p. daily (5 days on, 2 off), 29 days): 33%
reduction in tumor size, on average ([10]; 300 mg/kg i.p. daily (5 days on, 2 off), 29 days): 35%
adverse side effects, such as weight loss, during treatment ([10]; 150 or 300 mg/kg i.p., 29 days): No obvious adverse side effects
SP5 mRNA in tumors (real-time RT-PCR, relative to hGUSB) ([10]; both 150 mg/kg and 300 mg/kg doses): down-regulated
